Assay results published in ChEMBL document CHEMBL1157539, “Thousands of chemical starting points for antimalarial lead identification” (Nature, 2010).

System: Plasmodium falciparum
Assay: GSK_TCMDC: Inhibition of Plasmodium falciparum 3D7 in whole erythrocytes, using parasite LDH activity as an index of growth.
Format: functional, organism-based
Conditions: Plasmodium falciparum, 3D7

| SMILES | XC50 |
| --- | --- |
| N=C(N)c1ccc(-c2cc(-c3cccc(C(=N)N)c3)on2)cc1 | 13.8 nM |
| COc1cc(NC(=O)CCCCCCCCN2CCN(C)CC2)c2ncccc2c1 | 891 nM |
| Cc1cccc(-c2nc(Nc3ccncc3)c3ccc([N+](=O)[O-])cc3n2)n1 | 831 nM |
| CN1CCC(C(=O)Nc2cccc(-c3ccc(-c4nc5cc(C(F)(F)F)ccc5[nH]4)s3)c2)CC1 | 724 nM |
| CCOCCCNc1nc2cc(OC)c(OC)cc2c2nc(-c3ccccc3)nn12 | 209 nM |
| Cc1cc(C)c(NC(=O)NC2CCN(CCCCCNC(=O)/C=C/c3ccc(Cl)c(Cl)c3)C2)c(C)c1 (stereo not given) | 186 nM |
| N=C(N)NC(=O)Nc1cc(Cl)c(F)c(Cl)c1 | 635 nM |
| CN1CCN(CCCNCc2ccccc2-c2cccc(CNCc3ccc4c(c3)OCO4)c2)CC1 | 793 nM |
| O=C(Nc1ccccc1)N(Cc1cccc(-c2ccc(CNCc3ccc4c(c3)OCO4)cc2)c1)C1CCN(Cc2ccccc2)CC1 | 325 nM |
| CCC(CC)(Cc1ccccc1)NC(=O)[C@H](CC(C)C)Nc1ccc(C#N)c2ccccc12 | 913 nM |
| CC(=O)Nc1ccc(CN(Cc2ccc(F)cc2)Cc2cccc(Oc3ccccc3)c2)cc1 | 943 nM |
| Cc1ccc(NS(=O)(=O)c2ccc(C(C)N3CCC(N4CCCCC4)CC3)cc2)cc1C (stereo not given) | 763 nM |
| Cc1cc(N[C@@H](Cc2ccccc2)C(=O)NC2CCCC2)nc(NCCc2ccc(F)cc2)n1 | 803 nM |
| Cc1cnc2ccc(NS(=O)(=O)c3sc4ccc(Cl)cc4c3C)cc2c1N1CCNCC1 | 807 nM |
| COc1ccc(-c2cnn3ccc(Nc4cc(OC)c(OC)c(OC)c4)nc23)cc1OC | 650 nM |
| O=C(c1cccs1)N(Cc1cccc(-c2ccc(CNCCc3ccccc3)cc2)c1)C1CCN(Cc2ccccc2)CC1 | 860 nM |
| CC(C)(CNC(=O)[C@@H]1CCCCN1)c1nc(-c2ccc(Cl)c(O)c2)c(-c2ccncc2)[nH]1 | 841 nM |
| CCOc1ccc(C=CC(=O)Nc2ccc3nc(N4CCOCC4)cc(C)c3c2)cc1OC | 901 nM |
| N#Cc1ccc(NC(=O)c2ccc(Cc3ccc4c(c3)CCN(C3CCC3)CC4)cn2)cc1 | 1120 nM |
| COc1ccc2ncc(F)c(CCN3CC(O)C(CNCc4ccc5oc(=O)ccc5c4)C3)c2n1 (stereo not given) | 949 nM |
| CN1CC=C(c2c[nH]c3ccc(Br)cc23)CC1 | 1190 nM |
| COc1ccc([N+](=O)[O-])cc1N(Cc1ccccc1-c1ccccc1)S(=O)(=O)c1ccc(C(F)(F)F)cc1[N+](=O)[O-] | 1050 nM |
| Cc1[nH]c(C)c(-c2ccc(-c3ccc(C(F)F)cc3)nc2)c(=O)c1Cl | 241 nM |
| O=C(Nc1cccc(-c2cccc(-c3nc4cc(C(F)(F)F)ccc4[nH]3)c2)c1)c1ccc(=O)[nH]n1 | 656 nM |

| SMILES | XC50 |
| --- | --- |
| O=C(Nc1cccc(-c2ccc(-c3nc4ccccc4[nH]3)cc2)c1)Nc1ccc(F)c(F)c1F | 238 nM |
| COc1ccc(-c2ccc(NC(=O)c3cccc(Cl)c3)c(F)c2)cc1CNC(C)C | 895 nM |
| CCC(C)CN1CCC(N(C)c2cc(NC(=O)c3cccc(C)c3)ccn2)CC1 (stereo not given) | 937 nM |
| O=C(NCc1ccc(Cl)cc1)c1ccc(C(=O)NCC2CCCN2CC2CCCCC2)cc1 (stereo not given) | 854 nM |
| CON=Cc1ccn(-c2ccc(O)c3c2C[C@H]2C[C@H]4[C@H](N(C)C)C(O)=C(C(N)=O)C(=O)[C@@]4(O)C(O)=C2C3=O)c1 | 773 nM |
| COc1ccc(CCC(C)N2CC(N)C(c3cn(C)c4cnccc34)C2)cc1 (stereo not given) | 1360 nM |
| Oc1ccc(Cl)c2c1C(c1ccccc1)=NCC2 | 540 nM |
| CCc1ccccc1N=C1c2c(cccc2[N+](=O)[O-])C(=O)C1C(C)=O (stereo not given) | 90.9 nM |
| N#Cc1ccc2c(c1)CCN(CCC1CCC(NC(=O)/C=C/c3c[nH]c4ccc(F)cc34)CC1)CC2 (stereo not given) | 692 nM |
| O=C(CN1CCC(NCc2cnc(-c3ccc(Cl)cc3)[nH]2)CC1)N1CCc2ccccc21 | 650 nM |
| CCCCn1c(Sc2ccc(C#N)c([N+](=O)[O-])c2)nnc1-c1cccc(Cl)c1 | 762 nM |
| NC(=O)Nc1ccc2c(Nc3ccc(OCc4ccccc4)cc3)ncnc2c1 | 1260 nM |
| COc1ccc(CC(=O)Nc2ccc(Nc3nc(C)cc(N4CCCC4)n3)cc2)cc1 | 1110 nM |
| Nc1nc(N)c2c(Oc3cccc(Cl)c3)cccc2n1 | 471 nM |
| CC1CN(c2ccc(NC(=O)c3ccsc3)cc2C(=O)N2CCN(Cc3ccc(C(C)(C)C)cc3)CC2)CC(C)O1 (stereo not given) | 866 nM |
| FC(F)(F)c1ccc(CNC2CCN(CC3CCCCC3)CC2)cc1 | 933 nM |
| O=C(/C=C/c1ccc(Cl)c(Cl)c1)NCCCCCN1CCC(C(=O)Nc2ccc(F)c(Cl)c2)CC1 | 647 nM |
| COc1ccc(CC2(c3ccc(F)cc3)N=C(N)N(CCCc3ccc4c(c3)OCO4)C2=O)cc1 (stereo not given) | 739 nM |
| CC(=O)c1c(Cc2cccc(C(F)(F)F)c2)c[nH]c1C | 346 nM |
| O=c1c2ccccc2nc(/C=C/c2ccc([N+](=O)[O-])cc2)n1-c1ccccn1 | 382 nM |
| O=C(Nc1ccc(Cn2nc(Cl)c(N3CCCNCC3)cc2=O)cc1)Nc1ccc(-c2ccccc2)cc1 | 843 nM |
| Cc1[nH]c(C)c(-c2ccc(OCc3ccccc3)cc2)c(=O)c1Br | 280 nM |
| COc1cc2nc(NCCc3ccccc3)nc(N(C)Cc3ccccc3)c2cc1OC | 831 nM |
| O=C(/C=C/c1ccccc1Cl)Nc1ccc(Br)c(OCCN2CCN(CCN3CCOCC3)CC2)c1 | 763 nM |

| SMILES | XC50 |
| --- | --- |
| COc1cc2nc(N(C)C)nc(Nc3ccc(OCc4ccccc4)cc3)c2cc1OC | 71.8 nM |
| CC1(C)CC(NC(=O)NC2CCN(Cc3ccccc3)CC2)CC(C)(CNC(=O)NC2CCN(Cc3ccccc3)CC2)C1 (stereo not given) | 946 nM |
| COc1ccc2nccc([C@@H](O)CN3CCC(NC(=O)C(=Cc4ccc(Cl)cc4Cl)c4ccc(-c5ccccc5)cc4)CC3)c2c1 | 993 nM |
| COc1cc(Nc2nccc(N3CCC(NC(=O)c4cccc(NC(C)=O)c4)C3)n2)cc(OC)c1OC (stereo not given) | 828 nM |
| CC(Cc1ccc(OCCCCOc2ccccc2)cc1)NCCCc1nc2ccccc2[nH]1 (stereo not given) | 981 nM |
| Cc1cccc2nc(-c3cccc(-c4cccc(CNCc5cccc(N)c5)c4)c3)[nH]c12 | 543 nM |
| O=C(N[C@@H](Cc1cc(F)cc(F)c1)[C@H](O)CNCc1cccc(C(F)(F)F)c1)c1cc(C2CCCC2)cc(N2CCCC2=O)c1 | 803 nM |
| CC(=O)Nc1ccc(Cl)c(Cl)c1 | 41.6 nM |
| N=C(N)NC(=O)Nc1cc(Cl)c(Cl)c(Br)c1 | 611 nM |
| CC1(C)CCC(C)(C)c2c1ccc(C1CCN(CCCCNC(=O)c3ccc(-c4ccc(C#N)cc4)cc3)CC1)c2OCC(N)=O | 421 nM |
| Cc1ccc(F)c(C(=O)Nc2cccc(-c3nn4ccccc4c3-c3ccnc(Nc4cccc(F)c4)n3)c2)c1F | 1050 nM |
| c1ccc(C(OCCC2CCN(Cc3cccnc3)CC2)c2ccccc2)cc1 | 817 nM |
| c1ccc2c(NCCCCCCCCCNc3c4ccccc4nc4ccccc34)c3ccccc3nc2c1 | 298 nM |
| Oc1ccc(-c2ccccc2)cc1CNC1CCCCC1 | 497 nM |
| CCC(C)c1ccc(Nc2nc(C)cc(N(CC)CCCN3CCCCC3)n2)cc1 (stereo not given) | 332 nM |
| COc1ccc(-n2cc(C(=O)c3cc(Br)ccc3O)cc(C#N)c2=O)cc1Cl | 791 nM |
| Clc1ccc2c(NCc3ccccc3)ccnc2c1 | 339 nM |
| O=C(CC(=O)C(F)(F)F)c1ccc2c(c1)OCO2 | 744 nM |
| COc1ccc2c(NN=Cc3ccc(N(C)C)cc3)ccnc2c1 | 663 nM |
| COc1ccccc1N1CCN(CCCCNC(=O)c2ccc(NC(=O)c3ccc(C(F)(F)F)cc3)cc2)CC1 | 304 nM |
| O=S(=O)(NCCN1CCCC1)c1cccc(-c2ccc(CNCc3ccsc3)cc2)c1 | 804 nM |
| CCCN(CC1CC1)c1nc(C)nc2c(-c3ccccc3)cc(C)cc12 | 1020 nM |
